row,melting point,Compound
1,193 to 194 °C,CC1(CN2CCN(C(C)(C)C)C(=O)C2)Cn2cc([N+](=O)[O-])nc2O1 (stereo not drawn)
2,200.1 to 201 °C,C[C@]1(CN2CC=C(c3ccccc3)CC2)Cn2cc([N+](=O)[O-])nc2O1
3,240.9 to 245.6 °C,CCn1c(=O)n(CC2(C)Cn3cc([N+](=O)[O-])nc3O2)c2cc(Cl)ccc21 (stereo not drawn)
4,180 to 181.5 °C,C[C@]1(CN2CCN(C3CCN(c4ccc(OC(F)(F)F)cc4)CC3)CC2)Cn2cc([N+](=O)[O-])nc2O1
5,221 to 223 °C,O=C(OCc1ccc(C(F)(F)F)cc1)N1CCN(C(=O)N2CCC3(CC2)Cn2cc([N+](=O)[O-])nc2O3)CC1
6,138.5 to 140.3 °C,CNC(C1CCN(C(=O)OC(C)(C)C)CC1)[C@]1(C)Cn2cc([N+](=O)[O-])nc2O1 (stereo partly drawn)
7,166 to 167 °C,CC(C)(C)OC(=O)N1CCN(CCCC2(C)Cn3cc([N+](=O)[O-])nc3O2)CC1 (stereo not drawn)
8,161 to 162 °C,CC1(CN2CCN(C(=O)c3ccc(C(F)(F)F)cc3)CC2)Cn2cc([N+](=O)[O-])nc2O1 (stereo not drawn)
9,129 to 130 °C,CC1(CN2CCC(OCc3ccc(Cl)cc3)CC2)Cn2cc([N+](=O)[O-])nc2O1 (stereo not drawn)
10,125 to 126 °C,CC1(CN2CCC(Cc3ccc(C(F)(F)F)cc3)CC2)Cn2cc([N+](=O)[O-])nc2O1 (stereo not drawn)
11,249 to 252 °C,CC1(Cn2nc(C=Cc3ccc(Cl)cc3)oc2=O)Cn2cc([N+](=O)[O-])nc2O1 (stereo not drawn)
12,146 to 147 °C,C[C@]1(CN2CCN(C(=O)CCCc3ccc(Cl)cc3)CC2)Cn2cc([N+](=O)[O-])nc2O1
13,132 to 135 °C,CCOC(=O)N1CCN(C(=O)c2ccc(OC[C@@]3(C)Cn4cc([N+](=O)[O-])nc4O3)cc2)CC1
14,171.3 to 172.2 °C,CC1(CNC(=O)OCc2ccccc2)Cn2cc([N+](=O)[O-])nc2O1 (stereo not drawn)
15,198 to 200 °C,C[C@]1(COc2ccc(N3CC[S+]([O-])CC3)cc2)Cn2cc([N+](=O)[O-])nc2O1
16,156 to 159 °C (dec.),C[C@]1(CN2CCN(C(=O)Nc3ccc(Cl)cc3)CC2)Cn2cc([N+](=O)[O-])nc2O1
17,188.4 to 191.2 °C,C[C@]1(CN2CCN(N=Cc3ccc(C(F)(F)F)cc3)CC2)Cn2cc([N+](=O)[O-])nc2O1 [Example 505]
18,215 to 217 °C,CC1(CN2CCN(S(=O)(=O)Cc3ccc(Cl)cc3)CC2)Cn2cc([N+](=O)[O-])nc2O1 (stereo not drawn)
19,192.1 to 195.3 °C,C[C@]1(CN2CCN(Nc3ccc(C(F)(F)F)cc3)CC2)Cn2cc([N+](=O)[O-])nc2O1
20,180.2 to 180.9 °C,CC1(CN2CCN(Cc3ccccc3)C2=O)Cn2cc([N+](=O)[O-])nc2O1 (stereo not drawn)
21,123.5 to 124 °C,C[C@]1(CN2CCN(C(=O)OCC(F)(F)F)CC2)Cn2cc([N+](=O)[O-])nc2O1
22,143.5 to 145 °C,CC1(CN2CCC(Cc3ccc(OC(F)(F)F)cc3)CC2)Cn2cc([N+](=O)[O-])nc2O1 (stereo not drawn)
23,232 to 233 °C,C[C@]1(COc2nc3ccccc3o2)Cn2cc([N+](=O)[O-])nc2O1
24,137 to 138 °C,C[C@]1(CN2CCN(Cc3ccc(OC(F)(F)F)cc3)CC2)Cn2cc([N+](=O)[O-])nc2O1
25,150 to 151 °C,C[C@]1(CN2CCN(S(=O)(=O)CCCc3ccc(Cl)cc3)CC2)Cn2cc([N+](=O)[O-])nc2O1
26,107 to 109 °C,C[C@]1(CN2CCC([S+]([O-])c3ccc(OC(F)(F)F)cc3)CC2)Cn2cc([N+](=O)[O-])nc2O1 (stereo partly drawn)

row,melting point,Compound
1,228 to 229.5 °C,CC1(CN2CCN(c3nc4ccccc4o3)CC2)Cn2cc([N+](=O)[O-])nc2O1 (stereo not drawn)
2,210.5 to 212 °C,CCOC(=O)N1CCN(c2ccc(OC[C@@]3(C)Cn4cc([N+](=O)[O-])nc4O3)cc2)CC1
3,218 to 219.6 °C,C[C@]1(CN2CCN(c3ccc(Cl)cc3)CC2)Cn2cc([N+](=O)[O-])nc2O1
4,244 to 247 °C (dec.),O=C(NCc1ccccc1)N1CCC2(CC1)Cn1cc([N+](=O)[O-])nc1O2
5,122 to 124 °C,CC1(CN2CCN(C(=O)c3cccc(C(F)(F)F)c3)CC2)Cn2cc([N+](=O)[O-])nc2O1 (stereo not drawn)
6,202 to 203 °C (dec.),Cc1ccc(NC(=O)N2CCN(CC3(C)Cn4cc([N+](=O)[O-])nc4O3)CC2)cc1 (stereo not drawn)
7,138 to 142.2 °C,CC1(CN2CCCN(Cc3ccc(-c4ccccc4)cc3)CC2)Cn2cc([N+](=O)[O-])nc2O1 (stereo not drawn)
8,136.8 to 139.9 °C,C[C@]1(CN2CCC(NC(=O)Nc3ccc(C(F)(F)F)cc3)CC2)Cn2cc([N+](=O)[O-])nc2O1
9,138 to 140 °C,CC1(COC(=O)N2CCN(c3ccc(OC(F)(F)F)cc3)CC2)Cn2cc([N+](=O)[O-])nc2O1 (stereo not drawn)
10,175 to 177 °C,C[C@]1(COC(=O)N(c2ccc(Cl)cc2)C2CCCCC2)Cn2cc([N+](=O)[O-])nc2O1
11,227.5 to 228.3 °C (dec.),CC(C)(C)OC(=O)N1CCC(c2ccc(OC[C@@]3(C)Cn4cc([N+](=O)[O-])nc4O3)cc2)CC1
12,138.7 to 139.2 °C,CN(C(=O)OCc1ccccc1)C1CCN(CC2(C)Cn3cc([N+](=O)[O-])nc3O2)CC1 (stereo not drawn)
13,204 to 207 °C,O=c1oc(-c2ccc(OC(F)(F)F)cc2)nn1CC1Cn2cc([N+](=O)[O-])nc2O1 (stereo not drawn)
14,172 to 174.4 °C,CC1(CCCN2CCN(c3nc4ccccc4o3)CC2)Cn2cc([N+](=O)[O-])nc2O1 (stereo not drawn)
15,178.6 to 179.3 °C,C[C@]1(CN2CCN(N=C3CCCCC3)CC2)Cn2cc([N+](=O)[O-])nc2O1
16,107.9 to 109.3 °C,CC1(COCc2ccc(Oc3ccc(OC(F)(F)F)cc3)cc2)Cn2cc([N+](=O)[O-])nc2O1 (stereo not drawn)
17,264.6 to 268.3 °C,CC1(CN2C(=O)c3ccccc3C2=O)Cn2cc([N+](=O)[O-])nc2O1 (stereo not drawn)
18,179.5 to 182 °C,CC(C)(C)OC(=O)N1CCN(c2cccc(OC[C@@]3(C)Cn4cc([N+](=O)[O-])nc4O3)c2)CC1
19,148.6 to 152.9 °C,C[C@]1(CN2CCC(NCc3ccc(C(F)(F)F)cc3)CC2)Cn2cc([N+](=O)[O-])nc2O1
20,189.2 to 190.9 °C,CC1(CN2CCN(N=Cc3ccc(OC(F)(F)F)cc3)CC2)Cn2cc([N+](=O)[O-])nc2O1 (stereo not drawn)
21,156 to 159 °C,C[C@]1(CN2CCN(C(=O)N3C=CC(c4ccc(Cl)cc4)=CC3)CC2)Cn2cc([N+](=O)[O-])nc2O1
22,80 to 100 °C (dec.),CN1C(=O)C(C)(C)c2cc(COC(=O)N3CCN(C[C@@]4(C)Cn5cc([N+](=O)[O-])nc5O4)CC3)ccc21
23,182 to 184 °C,CC1(CN2CCN(S(=O)(=O)CCc3ccc(Cl)cc3)CC2)Cn2cc([N+](=O)[O-])nc2O1 (stereo not drawn)
24,176 to 178 °C,CC1(CCCN2CCN(Cc3ccc(-c4ccccc4)cc3)CC2)Cn2cc([N+](=O)[O-])nc2O1 (stereo not drawn)
25,224 to 225 °C,O=[N+]([O-])c1cn2c(n1)O[C@H](CN1CCN(Cc3ccc(-c4ccccc4)cc3)CC1)C2
26,260 to 265 °C (dec.),CC(C)(C)OC(=O)N1CCN(C(=O)N2CCC3(CC2)Cn2cc([N+](=O)[O-])nc2O3)CC1

row,melting point,Compound
1,113 to 114 °C,CC1(CN2CCC(Oc3ccc(C(F)(F)F)cc3)CC2)Cn2cc([N+](=O)[O-])nc2O1 (stereo not drawn)
2,245.5 to 247.8 °C,CC1(Cn2ccnc2)Cn2cc([N+](=O)[O-])nc2O1 (stereo not drawn)
3,244 to 247 °C (dec.),CN(C)c1ccc(NC(=O)N2CCC3(CC2)Cn2cc([N+](=O)[O-])nc2O3)cc1
4,176 to 177 °C,C[C@]1(CN2CCN(S(=O)(=O)CCCCc3ccc(Cl)cc3)CC2)Cn2cc([N+](=O)[O-])nc2O1
5,189 to 191 °C,CC1(CN2CCN(C(=O)Cc3ccc(Cl)c(Cl)c3)CC2)Cn2cc([N+](=O)[O-])nc2O1 (stereo not drawn)
6,92.5 to 94 °C,C[C@]1(CN2CCC(OCCc3ccc(Cl)cc3)CC2)Cn2cc([N+](=O)[O-])nc2O1
7,139 to 140 °C,CC1(CCN2CCN(C(=O)OCc3ccc(C(F)(F)F)cc3)CC2)Cn2cc([N+](=O)[O-])nc2O1 (stereo not drawn)
8,238 to 240 °C (dec.),O=C(Nc1ccc(F)cc1)N1CCC2(CC1)Cn1cc([N+](=O)[O-])nc1O2
9,174.3 to 175.5 °C,Cc1nc(-c2ccc(Cl)cc2)sc1CN1CCN(C[C@@]2(C)Cn3cc([N+](=O)[O-])nc3O2)CC1
10,186 to 188 °C,C[C@]1(COc2ccc(C3CCN(Cc4ccc(OC(F)(F)F)cc4)CC3)cc2)Cn2cc([N+](=O)[O-])nc2O1
11,216.5 to 218.5 °C,CC1(CN2CCN(C(=O)NC3CCCCC3)CC2)Cn2cc([N+](=O)[O-])nc2O1 (stereo not drawn)
12,232.4 to 234.7 °C,Cn1c(=O)n(CC2(C)Cn3cc([N+](=O)[O-])nc3O2)c2cc(C(F)(F)F)ccc21 (stereo not drawn)
13,185 to 187 °C,O=C(Cc1ccc(C(F)(F)F)cc1)N1CCC2(CC1)Cn1cc([N+](=O)[O-])nc1O2
14,174 to 175 °C,C[C@]1(CN2CCC(N3CCN(C(=O)c4ccc(Cl)cc4)CC3)CC2)Cn2cc([N+](=O)[O-])nc2O1
15,137 to 140 °C,C[C@]1(COC(=O)N2CCC(Nc3ccc(C(F)(F)F)cc3)CC2)Cn2cc([N+](=O)[O-])nc2O1
16,183 to 185 °C (dec.),O=[N+]([O-])c1cn2c(n1)OC(CN1CCN(Cc3ccc(-c4ccccc4)cc3)CC1)C2 (stereo not drawn)
17,244.2 to 249.8 °C (dec.),Cn1c(=O)n(CC2(C)Cn3cc([N+](=O)[O-])nc3O2)c2cc(F)ccc21 (stereo not drawn)
18,230 to 232 °C,CC(C)(C)OC(=O)N1CCC2(CC1)Cn1cc([N+](=O)[O-])nc1O2
19,172 to 174 °C,CC1(CN2CCC(C(=O)c3ccc(C(F)(F)F)cc3)CC2)Cn2cc([N+](=O)[O-])nc2O1 (stereo not drawn)
20,156.2 to 158.5 °C,C[C@]1(CN2CCC(NC(=O)OCc3ccc(OC(F)(F)F)cc3)CC2)Cn2cc([N+](=O)[O-])nc2O1
21,158.5 to 160.7 °C,CC(C)(C)OC(=O)NC1CCN(C[C@@]2(C)Cn3cc([N+](=O)[O-])nc3O2)CC1
22,185 to 188 °C (dec.),CC(C)(C)OC(=O)N1CCN(CC2Cn3cc([N+](=O)[O-])nc3O2)CC1 (stereo not drawn)
23,209 to 212 °C,CC1(CCn2nc(-c3cnccn3)oc2=O)Cn2cc([N+](=O)[O-])nc2O1 (stereo not drawn)
24,154 to 156 °C,CC1(CCCN2CCN(Cc3ccc(C(F)(F)F)cc3)CC2)Cn2cc([N+](=O)[O-])nc2O1 (stereo not drawn)
25,249 to 252 °C (dec.),O=C(Nc1ccc(Cl)cc1)N1CCC2(CC1)Cn1cc([N+](=O)[O-])nc1O2
26,184.5 to 187.5 °C,C[C@]1(COc2ccc(N3CCN(C(=O)OCc4ccc(Cl)cc4)CC3)cc2)Cn2cc([N+](=O)[O-])nc2O1

# — patent US7262212B2, “2,3-dihydro-6-nitroimidazo[2,1-b]oxazoles” (Otsuka Pharmaceutical Co., Ltd., priority 2002, dated 2007)
